{"source": "BindingDB's records for doi:10.1021/jm00018a012", "about": "(Pfizer, 1995)", "target": "Platelet-activating factor receptor (Oryctolagus cuniculus)", "test": "In vitro antagonist activity against platelet activating factor (PAF) receptor, using washed rabbit platelets", "data": [{"smiles": "Cc1nc2cnccc2n1-c1ccc(C2=Nc3c(c(-c4ccccc4)nn3C)NC(=O)C2)cc1", "note": "[1-Methyl-7-[4-(2-methyl-imidazo[4,5-c]pyridin-1-yl)-phenyl]-3-phenyl-4,6-dihydro-1H-pyrazolo[3,4-b][1,4]diazepin-5-one]", "values": [{"measurement": "IC50", "value": 2.7, "unit": "nM"}]}, {"smiles": "Cc1nc2cnccc2n1-c1ccc(C2=Nc3c(-c4ccccn4)nn(C)c3N(C)C(=O)C2)cc1", "note": "[1,8-Dimethyl-5-[4-(2-methyl-imidazo[4,5-c]pyridin-1-yl)-phenyl]-3-pyridin-2-yl-6,8-dihydro-1H-pyrazolo[3,4-b][1,4]diazepin-7-one]", "values": [{"measurement": "IC50", "value": 14, "unit": "nM"}]}, {"smiles": "Cc1nc2cnccc2n1-c1ccc(C2=Nc3c(-c4ccncc4)nn(C)c3N(C)C(=O)C2)cc1", "note": "[1,8-Dimethyl-5-[4-(2-methyl-imidazo[4,5-c]pyridin-1-yl)-phenyl]-3-pyridin-4-yl-6,8-dihydro-1H-pyrazolo[3,4-b][1,4]diazepin-7-one]", "values": [{"measurement": "IC50", "value": 5.2, "unit": "nM"}]}, {"smiles": "Cc1nc2cnccc2n1-c1ccc(C2=Nc3c(-c4ccccc4)nn(C)c3NC(=O)C2)cc1", "note": "[1-Methyl-5-[4-(2-methyl-imidazo[4,5-c]pyridin-1-yl)-phenyl]-3-phenyl-6,8-dihydro-1H-pyrazolo[3,4-b][1,4]diazepin-7-one]", "values": [{"measurement": "IC50", "value": 0.6, "unit": "nM"}]}, {"smiles": "Cc1cc2c(cc1C)-n1c(n[nH]c1=O)CC(c1ccc(-n3c(C)nc4cnccc43)cc1)=N2", "note": "[8,9-Dimethyl-5-[4-(2-methyl-imidazo[4,5-c]pyridin-1-yl)-phenyl]-2,4-dihydro-2,3,6,10b-tetraaza-benzo[e]azulen-1-one]", "values": [{"measurement": "IC50", "value": 55, "unit": "nM"}]}, {"smiles": "Cc1nc2cnccc2n1-c1ccc(C2=Nc3c(-c4ccccc4)nn(C)c3N(C)C(=O)C2)cc1", "note": "[1,8-Dimethyl-5-[4-(2-methyl-imidazo[4,5-c]pyridin-1-yl)-phenyl]-3-phenyl-6,8-dihydro-1H-pyrazolo[3,4-b][1,4]diazepin-7-one]", "values": [{"measurement": "IC50", "value": 0.5, "unit": "nM"}]}, {"smiles": "Cc1cc2c(cc1C)-n1nnnc1CC(c1ccc(-n3c(C)nc4cnccc43)cc1)=N2", "note": "[8,9-Dimethyl-5-[4-(2-methyl-imidazo[4,5-c]pyridin-1-yl)-phenyl]-4H-1,2,3,6,10b-pentaaza-benzo[e]azulene]", "values": [{"measurement": "IC50", "value": 11, "unit": "nM"}]}, {"smiles": "Cc1nc2cnccc2n1-c1ccc(C2=Nc3c(C(C)C)nn(C)c3N(C)C(=O)C2)cc1", "note": "[3-Isopropyl-1,8-dimethyl-5-[4-(2-methyl-imidazo[4,5-c]pyridin-1-yl)-phenyl]-6,8-dihydro-1H-pyrazolo[3,4-b][1,4]diazepin-7-one]", "values": [{"measurement": "IC50", "value": 3.5, "unit": "nM"}]}, {"smiles": "Cc1cc2c(cc1C)-n1ccnc1CC(c1ccc(-n3c(C)nc4cnccc43)cc1)=N2", "note": "[8,9-Dimethyl-5-[4-(2-methyl-imidazo[4,5-c]pyridin-1-yl)-phenyl]-4H-3,6,10b-triaza-benzo[e]azulene]", "values": [{"measurement": "IC50", "value": 1.3, "unit": "nM"}]}, {"smiles": "Cc1nc2cnccc2n1-c1ccc(C2=Nc3c(-c4cccs4)nn(C)c3N(C)C(=O)C2)cc1", "note": "[1,8-Dimethyl-5-[4-(2-methyl-imidazo[4,5-c]pyridin-1-yl)-phenyl]-3-thiophen-2-yl-6,8-dihydro-1H-pyrazolo[3,4-b][1,4]diazepin-7-one]", "values": [{"measurement": "IC50", "value": 1.5, "unit": "nM"}]}, {"smiles": "Cc1nn(C)c2c1NC(=O)CC(c1ccc(-n3c(C)nc4cnccc43)cc1)=N2", "note": "[1,3-Dimethyl-7-[4-(2-methyl-imidazo[4,5-c]pyridin-1-yl)-phenyl]-4,6-dihydro-1H-pyrazolo[3,4-b][1,4]diazepin-5-one]", "values": [{"measurement": "IC50", "value": 1, "unit": "nM"}]}, {"smiles": "Cc1cc2c(cc1C)-n1cnnc1CC(c1ccc(-n3c(C)nc4cnccc43)cc1)=N2", "note": "[8,9-Dimethyl-5-[4-(2-methyl-imidazo[4,5-c]pyridin-1-yl)-phenyl]-4H-2,3,6,10b-tetraaza-benzo[e]azulene]", "values": [{"measurement": "IC50", "value": 2.3, "unit": "nM"}]}, {"smiles": "Cc1nc2cnccc2n1-c1ccc(C2=Nc3cc(Cl)c(Cl)cc3-n3ccnc3C2)cc1", "note": "[8,9-Dichloro-5-[4-(2-methyl-imidazo[4,5-c]pyridin-1-yl)-phenyl]-4H-3,6,10b-triaza-benzo[e]azulene]", "values": [{"measurement": "IC50", "value": 1.7, "unit": "nM"}]}, {"smiles": "Cc1cn2c(n1)CC(c1ccc(-n3c(C)nc4cnccc43)cc1)=Nc1cc(Cl)c(Cl)cc1-2", "note": "[8,9-Dichloro-2-methyl-5-[4-(2-methyl-imidazo[4,5-c]pyridin-1-yl)-phenyl]-4H-3,6,10b-triaza-benzo[e]azulene]", "values": [{"measurement": "IC50", "value": 0.3, "unit": "nM"}]}, {"smiles": "Cc1nc2cnccc2n1-c1ccc(C2=Nc3c(CO)nn(C)c3N(C)C(=O)C2)cc1", "note": "[3-Hydroxymethyl-1,8-dimethyl-5-[4-(2-methyl-imidazo[4,5-c]pyridin-1-yl)-phenyl]-6,8-dihydro-1H-pyrazolo[3,4-b][1,4]diazepin-7-one]", "values": [{"measurement": "IC50", "value": 14, "unit": "nM"}]}, {"smiles": "Cc1nn(C)c2c1N=C(c1ccc(-n3c(C)nc4cnccc43)cc1)CC(=O)N2C", "note": "[1,3,8-Trimethyl-5-[4-(2-methyl-imidazo[4,5-c]pyridin-1-yl)-phenyl]-6,8-dihydro-1H-pyrazolo[3,4-b][1,4]diazepin-7-one]", "values": [{"measurement": "IC50", "value": 17, "unit": "nM"}]}, {"smiles": "Cc1cc2c(cc1C)-n1c(C)nnc1CC(c1ccc(-n3c(C)nc4cnccc43)cc1)=N2", "note": "[1,8,9-Trimethyl-5-[4-(2-methyl-imidazo[4,5-c]pyridin-1-yl)-phenyl]-4H-2,3,6,10b-tetraaza-benzo[e]azulene]", "values": [{"measurement": "IC50", "value": 2.4, "unit": "nM"}]}, {"smiles": "Cc1nc2cnccc2n1-c1ccc(C2=Nc3c(COCC(C)C)nn(C)c3N(C)C(=O)C2)cc1", "note": "[3-Isobutoxymethyl-1,8-dimethyl-5-[4-(2-methyl-imidazo[4,5-c]pyridin-1-yl)-phenyl]-6,8-dihydro-1H-pyrazolo[3,4-b][1,4]diazepin-7-one]", "values": [{"measurement": "IC50", "value": 0.8, "unit": "nM"}]}, {"smiles": "Cc1nc2cnccc2n1-c1ccc(C2=Nc3c(C4CCCCC4)nn(C)c3N(C)C(=O)C2)cc1", "note": "[3-Cyclohexyl-1,8-dimethyl-5-[4-(2-methyl-imidazo[4,5-c]pyridin-1-yl)-phenyl]-6,8-dihydro-1H-pyrazolo[3,4-b][1,4]diazepin-7-one]", "values": [{"measurement": "IC50", "value": 0.7, "unit": "nM"}]}, {"smiles": "Cc1nn(C)c2c1N=C(c1ccc(-n3c(C)nc4cnccc43)cc1)CC(=O)N2", "note": "[1,3-Dimethyl-5-[4-(2-methyl-imidazo[4,5-c]pyridin-1-yl)-phenyl]-6,8-dihydro-1H-pyrazolo[3,4-b][1,4]diazepin-7-one]", "values": [{"measurement": "IC50", "value": 26, "unit": "nM"}]}, {"smiles": "Cc1nc2cnccc2n1-c1ccc(C2=Nc3c(C4CCCCC4)nn4c3N(CCCC4)C(=O)C2)cc1", "note": "[3-Cyclohexyl-6-[4-(2-methyl-imidazo[4,5-c]pyridin-1-yl)-phenyl]-1,2,5,9-tetraaza-tricyclo[7.4.1.0*4,14*]tetradeca-2,4(14),5-trien-8-one]", "values": [{"measurement": "IC50", "value": 0.4, "unit": "nM"}]}, {"smiles": "Cc1cnc2n1-c1cc(Cl)c(Cl)cc1N=C(c1ccc(-n3c(C)nc4cnccc43)cc1)C2", "note": "[8,9-Dichloro-1-methyl-5-[4-(2-methyl-imidazo[4,5-c]pyridin-1-yl)-phenyl]-4H-3,6,10b-triaza-benzo[e]azulene]", "values": [{"measurement": "IC50", "value": 1.2, "unit": "nM"}]}, {"smiles": "Cc1cc(C)c2c(n1)N=C(c1ccc(-n3c(C)nc4cnccc43)cc1)CC(=O)N2", "note": "[7,9-Dimethyl-4-[4-(2-methyl-imidazo[4,5-c]pyridin-1-yl)-phenyl]-1,3-dihydro-pyrido[3,4-b][1,4]diazepin-2-one]", "values": [{"measurement": "IC50", "value": 21, "unit": "nM"}]}, {"smiles": "Cc1nc2cnccc2n1-c1ccc(C2=Nc3c(-c4cccnc4)nn(C)c3N(C)C(=O)C2)cc1", "note": "[1,8-Dimethyl-5-[4-(2-methyl-imidazo[4,5-c]pyridin-1-yl)-phenyl]-3-pyridin-3-yl-6,8-dihydro-1H-pyrazolo[3,4-b][1,4]diazepin-7-one]", "values": [{"measurement": "IC50", "value": 2.4, "unit": "nM"}]}]}
